Assay results: publication PMC10004157

Row | Compound | melting point [°C]
1 | C[C@H](CO)Nc1nc(SCCc2ccccc2)nc2cnccc12 [Compound 26d, (2R)-2-[(2-(Phenylethylmercapto)-pyrido[3,4-d]pyrimidine-4-yl)amino]propanol] | 182 to 184
2 | C[C@H](CO)Nc1nc(SCc2cccc(F)c2F)nc2cnc(-c3ccco3)cc12 [Compound 17b, (2R)-2-[(2-(2,3-Difluorobenzylmercapto)-6-(2-furanyl)-pyrido[3,4-d]pyrimidine-4-yl)amino]propanol] | 163 to 165
3 | C[C@H](CO)Nc1nc(SCc2cccc(F)c2F)nc2cnc(-c3ccccc3)cc12 [Compound 17a, (2R)-2-[(2-(2,3-Difluorobenzylmercapto)-6-phenyl-pyrido[3,4-d]pyrimidine-4-yl)amino]propanol] | 202 to 204
4 | CCCCCCSc1nc(N[C@H](C)CO)c2ccncc2n1 [Compound 26e, (2R)-2-[(2-(Hexylmercapto)-pyrido[3,4-d]pyrimidine-4-yl)amino]propanol] | 147 to 149
5 | C[C@H](CO)Nc1nc(SCc2cccc(F)c2F)nc2cnc(-c3cccs3)cc12 [Compound 17d, (2R)-2-[(2-(2,3-Difluorobenzylmercapto)-6-(2-thienyl)-pyrido[3,4-d]pyrimidine-4-yl)amino]propanol] | 176 to 178
6 | C[C@H](CO)Nc1nc(SCc2cccc(F)c2F)nc2cnc(-n3ccnc3)cc12 [Compound 16b, (2R)-2-[(6-Imidazolyl-2-(2,3-difluorobenzylmercapto)-pyrido[3,4-d]pyrimidine-4-yl)amino]propanol] | 245 to 247
7 | Cc1ccc(-c2cc3c(N[C@H](C)CO)nc(SCc4cccc(F)c4F)nc3cn2)o1 [Compound 17c, (2R)-2-[(2-(2,3-Difluorobenzylmercapto)-6-(5-methylfuran-2-yl)-pyrido[3,4-d]pyrimidine-4-yl)amino]propanol] | 162 to 164
8 | C[C@H](CO)Nc1nc(Sc2ccccc2)nc2cnccc12 [Compound 26c, (2R)-2-[(2-(Phenylmercapto)-pyrido[3,4-d]pyrimidine-4-yl)amino]propanol] | 193 to 196
9 | C[C@H](CO)Nc1nc(SCc2cccc(F)c2F)nc2cncc(Cl)c12 [Compound 9, (2R)-2-[(5-Chloro-2-(2,3-difluorobenzylmercapto)-pyrido[3,4-d]pyrimidine-4-yl)amino]propanol] | 146 to 148

The remaining lines, values ahead:

Row | melting point [°C] | Compound
10 | 167 to 169 | C[C@H](CO)Nc1nc(OCc2cccc(F)c2F)nc2cnccc12 [Compound 26b, (2R)-2-[(2-(2,3-Difluorobenzyloxy)-pyrido[3,4-d]pyrimidine-4-yl)amino]propanol]
11 | 174 to 176 | C[C@H](CO)Nc1nc(SCc2cccc(F)c2F)nc2cnc(N)cc12 [Compound 21, (2R)-2-[(6-Amino-2-(2,3-difluorobenzylmercapto)-pyrido[3,4-d]pyrimidine-4-yl)amino]propanol]
12 | 136 to 140 | C[C@H](CO)Nc1nc(NCc2cccc(F)c2F)nc2cnccc12 [Compound 26a, (2R)-2-[(2-(2,3-Difluorobenzylamino)-pyrido[3,4-d]pyrimidine-4-yl)amino]propanol]
13 | 166 to 168 | CC(C)(CO)Nc1nc(SCc2cccc(F)c2F)nc2cnccc12 [Compound 24b, 2-[(2-(2,3-Difluorobenzylmercapto)-pyrido[3,4-d]pyrimidine-4-yl)amino]-2-methyl-propan-1-ol]
14 | 181 to 183 | OCCOc1nc(SCc2cccc(F)c2F)nc2cnccc12 [Compound 24e, 3-[(2-(2,3-Difluorobenzylmercapto)-pyrido[3,4-d]pyrimidine-4-yl)oxy]ethanol]
15 | 174 to 176 | CC[C@H](CO)Nc1nc(SCc2cccc(F)c2F)nc2cnccc12 [Compound 24a, (2R)-2-[(2-(2,3-Difluorobenzylmercapto)-pyrido[3,4-d]pyrimidine-4-yl)amino]butanol]
16 | 181 to 183 | OCCNc1nc(SCc2cccc(F)c2F)nc2cnccc12 [Compound 24d, 3-[(2-(2,3-Difluorobenzylmercapto)-pyrido[3,4-d]pyrimidine-4-yl)amino]ethanol]
17 | 211 to 213 | C[C@H](CO)Nc1nc(SCc2cccc(F)c2F)nc2cnc(Cl)cc12 [Compound 16a, (2R)-2-[(6-Chloro-2-(2,3-difluorobenzylmercapto)-pyrido[3,4-d]pyrimidine-4-yl)amino]propanol]
18 | 156 to 158 | OCC(O)CNc1nc(SCc2cccc(F)c2F)nc2cnccc12 (stereo not drawn) [Compound 24c, 3-[(2-(2,3-Difluorobenzylmercapto)-pyrido[3,4-d]pyrimidine-4-yl)amino]propan-1,2-diol]
